Measured values as given in the NIST ThermoML archive (doi:10.1016/j.jct.2019.01.027).
Numbers after ± are expanded uncertainties.

Details: Liquid, Ebulliometric method (Recirculating still)

Structure (SMILES): Cc1ccc(C)cc1 [1,4-dimethylbenzene]
- vapor or sublimation pressure (411.45 K): 101.3 ± 1.2 kPa

Structure (SMILES): CC(=O)OCC(C)C [2-methylpropyl ethanoate]
- vapor or sublimation pressure (389.55 K): 101.3 ± 1.2 kPa

Structure (SMILES): CCCCOC(=O)CC [butyl propanoate]
- vapor or sublimation pressure (418.35 K): 101.3 ± 1.2 kPa

Structure (SMILES): COC(=O)OC [dimethyl carbonate]
- vapor or sublimation pressure (363.35 K): 101.3 ± 1.2 kPa

Structure (SMILES): CCO [ethanol]
- vapor or sublimation pressure (351.45 K): 101.3 ± 1.2 kPa
